This passage reports EC50 and solubility results from patent publication US20250382344A1, “Soluble GLP1/GIP/NPY2 Receptor Triple Agonists” (Boehringer Ingelheim International GmH, priority 2024, published 2025).

SMILES strings stand for the structures. Where two headings read alike, the source gives them in different places.

Series [1] has as its target T1, hGLP1R (Homo sapiens, UniProt P43220).
T1 construct: expressed in transfected cells; host or cells: HEK-293 CRE-luciferase reporter cells
Nature of the series: hGLP1R CreLuc assay in 0.5% and 100% plasma (HEK-293 CRE-luciferase reporter cells). The series is classed as cell-based. As to conditions: HEK-293 reporter cells.

Series [2] has as its target T2, hGIPR (Homo sapiens, UniProt P48546).
T2 construct: expressed in transfected cells; host or cells: CHO CRE-luciferase reporter cells
T2 sequence (P48546 22-466): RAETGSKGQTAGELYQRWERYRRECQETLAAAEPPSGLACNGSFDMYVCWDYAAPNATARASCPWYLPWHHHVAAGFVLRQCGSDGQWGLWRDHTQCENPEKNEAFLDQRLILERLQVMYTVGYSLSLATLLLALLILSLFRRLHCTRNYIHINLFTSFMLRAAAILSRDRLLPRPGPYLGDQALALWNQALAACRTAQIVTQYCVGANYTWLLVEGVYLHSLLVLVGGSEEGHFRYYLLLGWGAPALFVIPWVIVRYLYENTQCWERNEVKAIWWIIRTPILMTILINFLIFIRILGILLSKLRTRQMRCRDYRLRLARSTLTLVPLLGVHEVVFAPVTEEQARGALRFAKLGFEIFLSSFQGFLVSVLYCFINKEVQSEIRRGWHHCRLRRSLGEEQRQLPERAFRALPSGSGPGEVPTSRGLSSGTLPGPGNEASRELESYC
Nature of the series: hGIPR CreLuc assay in 0.5% and 100% plasma (CHO CRE-luciferase reporter cells). In kind it is cell-based. Background: In a reporter assay the amount or activity of a reporter protein is the signal.

Series [3] can be described thus: Solubility in 0.1 M phosphate buffer at pH 7. In kind it is physicochemical. Conditions: 0.1 M phosphate buffer at pH 7, 10 mg/mL final peptide concentration, shaking 2 hours at room temperature, peptides as TFA-salts; measured sample pH 6.5-7.0.
Setting [4] is: 0.5% human plasma, read-out: hGLP1R 0.5% hP.
Setting [5] is: 100% human plasma, read-out: hGLP1R 100% hP.
Setting [6] is: 0.5% human plasma, read-out: hGIPR 0.5% hP.
Setting [7] is: 100% human plasma, read-out: hGIPR 100% hP.

T1 sequence (P43220 24-463): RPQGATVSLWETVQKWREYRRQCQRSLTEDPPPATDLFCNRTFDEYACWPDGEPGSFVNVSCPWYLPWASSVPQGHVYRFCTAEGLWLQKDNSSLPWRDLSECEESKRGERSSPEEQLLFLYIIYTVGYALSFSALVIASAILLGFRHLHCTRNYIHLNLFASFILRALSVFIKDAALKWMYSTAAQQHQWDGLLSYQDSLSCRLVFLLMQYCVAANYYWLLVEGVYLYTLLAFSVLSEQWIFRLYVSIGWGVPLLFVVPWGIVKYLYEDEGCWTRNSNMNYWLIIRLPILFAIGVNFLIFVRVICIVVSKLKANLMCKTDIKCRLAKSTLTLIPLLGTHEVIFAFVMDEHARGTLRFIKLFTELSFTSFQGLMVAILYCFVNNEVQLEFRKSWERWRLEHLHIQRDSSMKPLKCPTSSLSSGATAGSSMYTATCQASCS

Regarding `CC[C@H](C)[C@H](NC(=O)[C@H](CC(C)C)NC(=O)[C@H](Cc1c[nH]cn1)NC(=O)[C@H](CCCNC(=N)N)NC(=O)[C@@H](NC(=O)[C@H](Cc1ccccc1)NC(=O)[C@H](C)NC(=O)C(C)(C)NC(=O)[C@H](CCC(N)=O)NC(=O)[C@H](C)NC(=O)[C@H](CCC(N)=O)NC(=O)[C@H](CCC(=O)O)NC(=O)[C@H](CCC(=O)O)NC(=O)[C@H](CC(C)C)NC(=O)[C@](C)(CC(C)C)NC(=O)[C@@H](NC(=O)[C@H](CO)NC(=O)[C@H](Cc1ccc(O)cc1)NC(=O)[C@H](CC(=O)O)NC(=O)[C@H](CO)NC(=O)[C@@H](NC(=O)[C@H](Cc1ccccc1)NC(=O)[C@@H](NC(=O)CNC(=O)[C@H](CCC(=O)O)NC(=O)C(C)(C)NC(=O)[C@@H](N)Cc1ccc(O)cc1)[C@@H](C)O)[C@@H](C)O)[C@@H](C)CC)C(C)C)C(=O)N[C@@H](CC(N)=O)C(=O)N[C@@H](CCCCNC(=O)[C@@H](N)CCCCNC(=O)CC[C@H](NC(=O)CC[C@H](NC(=O)CC[C@H](NC(=O)CC[C@H](NC(=O)CC[C@H](NC(=O)CC[C@H](NC(=O)CCCCCCCCCCCCCCCCCCC(=O)O)C(=O)O)C(=O)O)C(=O)O)C(=O)O)C(=O)O)C(=O)O)C(=O)NC(C)(C)C(=O)N[C@H](C(=O)N[C@@H](CCCNC(=N)N)C(=O)N[C@@H](CCC(N)=O)C(=O)N[C@@H](CCCNC(=N)N)C(=O)N[C@@H](Cc1ccc(O)cc1)C(N)=O)[C@@H](C)O` [Compound 89, Y-Aib-E-G-T-F-T-S-D-Y-S-I-aMeL-L-E-E-Q-A-Q-Aib-A-F-V-R-H-L-I-N-K(1,3)-Aib-T-R-Q-R-Y-NH2.C20DA-gGlu-gGlu-gGlu-gGlu-gGlu-gGlu-eLys(1,2)], the EC50 came out at 0.2 nM in series [1] (setting [4]), 1.7 nM in series [1] (setting [5]), 0.1 nM in series [2] (setting [6]) and 0.9 nM in series [2] (setting [7]). Further, the solubility at 2 h in series [3] amounted to 8800 µg/mL.

Turning to `CC[C@H](C)[C@H](NC(=O)[C@H](CC(C)C)NC(=O)[C@H](Cc1c[nH]cn1)NC(=O)[C@H](CCCNC(=N)N)NC(=O)[C@@H](NC(=O)[C@H](Cc1ccccc1)NC(=O)[C@H](CCC(=O)O)NC(=O)C(C)(C)NC(=O)[C@H](CCC(N)=O)NC(=O)[C@H](C)NC(=O)[C@H](CCC(N)=O)NC(=O)[C@H](CCCCN)NC(=O)[C@H](CCC(=O)O)NC(=O)[C@H](CC(C)C)NC(=O)C(C)(C)NC(=O)[C@@H](NC(=O)[C@H](CO)NC(=O)[C@H](Cc1ccc(O)cc1)NC(=O)[C@H](CC(=O)O)NC(=O)[C@H](CO)NC(=O)[C@@H](NC(=O)[C@H](Cc1ccccc1)NC(=O)[C@@H](NC(=O)CNC(=O)[C@H](CCC(=O)O)NC(=O)C(C)(C)NC(=O)[C@@H](N)Cc1ccc(O)cc1)[C@@H](C)O)[C@@H](C)O)[C@@H](C)CC)C(C)C)C(=O)N[C@@H](CC(N)=O)C(=O)N[C@@H](CCCCNC(=O)COCCOCCNC(=O)COCCOCCNC(=O)CC[C@H](NC(=O)CC[C@H](NC(=O)CC[C@H](NC(=O)CC[C@H](NC(=O)CC[C@H](NC(=O)CCCCCCCCCCCCCCCCC(=O)O)C(=O)O)C(=O)O)C(=O)O)C(=O)O)C(=O)O)C(=O)NC(C)(C)C(=O)N[C@H](C(=O)N[C@@H](CCCNC(=N)N)C(=O)N[C@@H](CCC(N)=O)C(=O)N[C@@H](CCCNC(=N)N)C(=O)N[C@@H](Cc1ccc(O)cc1)C(N)=O)[C@@H](C)O` [Compound 98, Y-Aib-E-G-T-F-T-S-D-Y-S-I-Aib-L-E-K-Q-A-Q-Aib-E-F-V-R-H-L-I-N-K(1,3)-Aib-T-R-Q-R-Y-NH2.C18DA-gGlu-gGlu-gGlu-gGlu-gGlu-OEG-OEG(1,2)], the figures for the EC50 in series [1] (setting [4]) and in series [2] (setting [6]) were 0.7 nM and 0.5 nM, respectively. For the same molecule, the solubility at 2 h in series [3] worked out at 4900 µg/mL.

Turning to `CC[C@H](C)[C@H](NC(=O)[C@H](CC(C)C)NC(=O)[C@H](Cc1c[nH]cn1)NC(=O)[C@H](CCCNC(=N)N)NC(=O)[C@@H](NC(=O)[C@H](Cc1ccccc1)NC(=O)[C@H](CCC(=O)O)NC(=O)C(C)(C)NC(=O)[C@H](CCC(N)=O)NC(=O)[C@H](C)NC(=O)[C@H](CCC(N)=O)NC(=O)[C@H](CCCCN)NC(=O)[C@H](CC(=O)O)NC(=O)[C@H](CC(C)C)NC(=O)C(C)(C)NC(=O)[C@@H](NC(=O)[C@H](CO)NC(=O)[C@H](Cc1ccc(O)cc1)NC(=O)[C@H](CC(=O)O)NC(=O)[C@H](CO)NC(=O)[C@@H](NC(=O)[C@H](Cc1ccccc1)NC(=O)[C@@H](NC(=O)CNC(=O)[C@H](CCC(=O)O)NC(=O)C(C)(C)NC(=O)[C@@H](N)Cc1ccc(O)cc1)[C@@H](C)O)[C@@H](C)O)[C@@H](C)CC)C(C)C)C(=O)N[C@@H](CC(N)=O)C(=O)N[C@@H](CCCCNC(=O)[C@@H](N)CCCCNC(=O)CC[C@H](NC(=O)CC[C@H](NC(=O)CC[C@H](NC(=O)CC[C@H](NC(=O)CC[C@H](NC(=O)CCCCCCCCCCCCCCCCC(=O)O)C(=O)O)C(=O)O)C(=O)O)C(=O)O)C(=O)O)C(=O)NC(C)(C)C(=O)N[C@H](C(=O)N[C@@H](CCCNC(=N)N)C(=O)N[C@@H](CCC(N)=O)C(=O)N[C@@H](CCCNC(=N)N)C(=O)N[C@@H](Cc1ccc(O)cc1)C(N)=O)[C@@H](C)O` [Compound 113, Y-Aib-E-G-T-F-T-S-D-Y-S-I-Aib-L-D-K-Q-A-Q-Aib-E-F-V-R-H-L-I-N-K(1,3)-Aib-T-R-Q-R-Y-NH2.C18DA-gGlu-gGlu-gGlu-gGlu-gGlu-eLys(1,2)], the EC50 came out at 0.1 nM in series [1] (setting [4]), 0.2 nM in series [2] (setting [6]) and 5.5 nM in series [2] (setting [7]). Further, the solubility at 2 h in series [3] is 8700 µg/mL.

For the molecule `CC[C@H](C)[C@H](NC(=O)[C@H](CC(C)C)NC(=O)[C@H](Cc1c[nH]cn1)NC(=O)[C@H](CCCNC(=N)N)NC(=O)[C@@H](NC(=O)[C@H](Cc1ccccc1)NC(=O)[C@H](C)NC(=O)C(C)(C)NC(=O)[C@H](CCC(N)=O)NC(=O)[C@H](C)NC(=O)[C@H](CCC(N)=O)NC(=O)[C@H](CCCCN)NC(=O)[C@H](CCC(=O)O)NC(=O)[C@H](CC(C)C)NC(=O)C(C)(C)NC(=O)[C@@H](NC(=O)[C@H](CO)NC(=O)[C@H](Cc1ccc(O)cc1)NC(=O)[C@H](CC(=O)O)NC(=O)[C@H](CO)NC(=O)[C@@H](NC(=O)[C@H](Cc1ccccc1)NC(=O)[C@@H](NC(=O)CNC(=O)[C@H](CCC(=O)O)NC(=O)C(C)(C)NC(=O)[C@@H](N)Cc1ccc(O)cc1)[C@@H](C)O)[C@@H](C)O)[C@@H](C)CC)C(C)C)C(=O)N[C@@H](CC(N)=O)C(=O)N[C@@H](CCCCNC(=O)[C@@H](N)CCCCNC(=O)CC[C@H](NC(=O)CC[C@H](NC(=O)CC[C@H](NC(=O)CC[C@H](NC(=O)CC[C@H](NC(=O)CC[C@H](NC(=O)CCCCCCCCCCCCCCCCC(=O)O)C(=O)O)C(=O)O)C(=O)O)C(=O)O)C(=O)O)C(=O)O)C(=O)NC(C)(C)C(=O)N[C@H](C(=O)N[C@@H](CCCNC(=N)N)C(=O)N[C@@H](CCC(N)=O)C(=O)N[C@@H](CCCNC(=N)N)C(=O)N(C)[C@@H](Cc1ccc(O)cc1)C(N)=O)[C@@H](C)O` [Compound 116, Y-Aib-E-G-T-F-T-S-D-Y-S-I-Aib-L-E-K-Q-A-Q-Aib-A-F-V-R-H-L-I-N-K(1,3)-Aib-T-R-Q-R-NMeY-NH2.C18DA-gGlu-gGlu-gGlu-gGlu-gGlu-gGlu-eLys(1,2)], the EC50 was 2 nM in series [1] (setting [4]), 0.3 nM in series [2] (setting [6]) and 3.4 nM in series [2] (setting [7]). The solubility at 2 h in series [3] was found to be 4200 µg/mL.

As to `CC[C@H](C)[C@H](NC(=O)[C@H](CC(C)C)NC(=O)[C@H](Cc1c[nH]cn1)NC(=O)[C@H](CCCNC(=N)N)NC(=O)[C@@H](NC(=O)[C@H](Cc1ccccc1)NC(=O)[C@H](C)NC(=O)C(C)(C)NC(=O)[C@H](CCC(N)=O)NC(=O)[C@H](C)NC(=O)[C@H](CCC(N)=O)NC(=O)[C@H](CCCCN)NC(=O)[C@H](CCC(=O)O)NC(=O)[C@H](CC(C)C)NC(=O)C(C)(C)NC(=O)[C@@H](NC(=O)[C@H](CO)NC(=O)[C@H](Cc1ccc(O)cc1)NC(=O)[C@H](CC(=O)O)NC(=O)[C@H](CO)NC(=O)[C@@H](NC(=O)[C@H](Cc1ccccc1)NC(=O)[C@@H](NC(=O)CNC(=O)[C@H](CCC(=O)O)NC(=O)C(C)(C)NC(=O)[C@@H](N)Cc1ccc(O)cc1)[C@@H](C)O)[C@@H](C)O)[C@@H](C)CC)C(C)C)C(=O)N[C@@H](CC(N)=O)C(=O)N[C@@H](CCCCNC(=O)[C@@H](N)CCCCNC(=O)CC[C@H](NC(=O)CC[C@H](NC(=O)CC[C@H](NC(=O)CC[C@H](NC(=O)CC[C@H](NC(=O)CC[C@H](NC(=O)CCCCCCCCCCCCCCCCC(=O)O)C(=O)O)C(=O)O)C(=O)O)C(=O)O)C(=O)O)C(=O)O)C(=O)N[C@@H](CC(C)C)C(=O)N[C@H](C(=O)N[C@@H](CCCNC(=N)N)C(=O)N[C@@H](CCC(N)=O)C(=O)N[C@@H](CCCNC(=N)N)C(=O)N[C@@H](Cc1ccc(O)cc1)C(N)=O)[C@@H](C)O` [Compound 127, Y-Aib-E-G-T-F-T-S-D-Y-S-I-Aib-L-E-K-Q-A-Q-Aib-A-F-V-R-H-L-I-N-K(1,3)-L-T-R-Q-R-Y-NH2.C18DA-gGlu-gGlu-gGlu-gGlu-gGlu-gGlu-eLys(1,2)], the EC50 in series [1] (setting [5]) was 4 nM; in series [2] (setting [6]), 0.4 nM. For the same molecule, the solubility at 2 h in series [3] was 4500 µg/mL.

By solubility is commonly meant the dissolved amount per volume that the medium holds.
